Blank lines part the entries; values can stand above or below the molecule they belong to.
Assay: Thermal crystal transformation test (hot stage, XRPD)
Assay type: physicochemical
Details: for Results (crystal form after thermal crystal transformation, XRPD): heating rate 10° C./min, holding time 1 min
Protocol: The present invention further provides a method for preparing the polymorph of any one of Form A to Form Z, including: • (1) suspension method: adding a crude free base of the compound of formula I (which can be prepared according to the methods described in WO 2019240938 A1) to a selected single or binary solvent until a suspension is formed and stirring same under suspension at room temperature to 50° C. for a period of time (e.g., 1 h to 3 days, or 2 h to 24 h, or 2 h to 12 h, or 3 h to 5 h), and then centrifuging and separating the suspension, followed by drying, to obtain the product; or • (2) Anti-solvent crystallization method: adding a crude free base of the compound of formula I to an appropriate amount of a good solvent until completely dissolved, taking an amount of the solution and dropwise adding same to a poor solvent or dropwise adding a poor solvent to the solution, and stirring same to precipitate a solid, followed by separation and drying to obtain the product; or • (3) cooling method: adding a crude free base of the compound of formula I to an appropriate amount of a solvent at 50-80° C. until the solid is just completely dissolved, and transferring the solution to an environment at room temperature for cooling, followed by leaving to stand or crystallization under stirring, separation and drying to obtain the product; or • (4) vapor diffusion method: dropwise adding an appropriate amount of a good solvent to an amount of a crude free base of the compound of formula I at room temperature to completely dissolve the sample or formulating same as a saturated solution of a good solvent; and separately taking an amount of the solution, and leaving the clear solution to stand in a poor solvent atmosphere at room temperature until a solid precipitates out, followed by separation, to obtain the product; or • (5) thermal crystal transformation method: placing an amount of the sample on a glass plate on a hot stage, heating same to the target temperature at a rate (e.g., 5-20° C./min, or 10-15° C./min), and maintaining the temperature for a period of time (e.g., 0.5-5 min, or 1-3 min, or 1-2 min), followed by naturally cooling down to room temperature to obtain a solid.
The different crystal forms, as raw materials, were heated to the target temperature on a hot table and held for 1 min, and cooled to room temperature to obtain solids for the XRPD test.

crystal form after thermal crystal transformation (heated to 150° C.): Form A | crystal form after thermal crystal transformation (heated to 300° C.): Form C | Results (crystal form after thermal crystal transformation, XRPD) (target temperature 150° C.): Form A | Results (crystal form after thermal crystal transformation, XRPD) (target temperature 300° C.): Form C
Compound: [2H]C([2H])([2H])[C@@H]1CCc2c(Oc3c(Cl)cc(-n4nc(C#N)c(=O)[nH]c4=O)cc3Cl)n[nH]c(=O)c21 [Form A, (R)-2-(3,5-dichloro-4-((7-(methyl-d3)-1-oxo-2,5,6,7-tetrahydro-1H-cyclopenta [d]pyridazin-4-yl)oxy)phenyl)-3,5-dioxo-2,3,4,5-tetrahydro-1,2,4-triazine-6-carbonitrile]

crystal form after thermal crystal transformation (by desolvation): Form C | Results (crystal form after thermal crystal transformation, XRPD) (target temperature 180° C.): Form C
Compound: [2H]C([2H])([2H])[C@@H]1CCc2c(Oc3c(Cl)cc(-n4nc(C#N)c(=O)[nH]c4=O)cc3Cl)n[nH]c(=O)c21 [Form E, (R)-2-(3,5-dichloro-4-((7-(methyl-d3)-1-oxo-2,5,6,7-tetrahydro-1H-cyclopenta [d]pyridazin-4-yl)oxy)phenyl)-3,5-dioxo-2,3,4,5-tetrahydro-1,2,4-triazine-6-carbonitrile]

crystal form after thermal crystal transformation (heated to 230° C. or more): Form C | Results (crystal form after thermal crystal transformation, XRPD) (target temperature 230° C.): Form C
Compound: [2H]C([2H])([2H])[C@@H]1CCc2c(Oc3c(Cl)cc(-n4nc(C#N)c(=O)[nH]c4=O)cc3Cl)n[nH]c(=O)c21 [Form F, (R)-2-(3,5-dichloro-4-((7-(methyl-d3)-1-oxo-2,5,6,7-tetrahydro-1H-cyclopenta [d]pyridazin-4-yl)oxy)phenyl)-3,5-dioxo-2,3,4,5-tetrahydro-1,2,4-triazine-6-carbonitrile]

Results (crystal form after thermal crystal transformation, XRPD) (target temperature 160° C.): Form C
Compound: [2H]C([2H])([2H])[C@@H]1CCc2c(Oc3c(Cl)cc(-n4nc(C#N)c(=O)[nH]c4=O)cc3Cl)n[nH]c(=O)c21 [Form J, (R)-2-(3,5-dichloro-4-((7-(methyl-d3)-1-oxo-2,5,6,7-tetrahydro-1H-cyclopenta [d]pyridazin-4-yl)oxy)phenyl)-3,5-dioxo-2,3,4,5-tetrahydro-1,2,4-triazine-6-carbonitrile]

crystal form after thermal crystal transformation (heated to 260° C. or more): Form C
Compound: [2H]C([2H])([2H])[C@@H]1CCc2c(Oc3c(Cl)cc(-n4nc(C#N)c(=O)[nH]c4=O)cc3Cl)n[nH]c(=O)c21 [Form K, (R)-2-(3,5-dichloro-4-((7-(methyl-d3)-1-oxo-2,5,6,7-tetrahydro-1H-cyclopenta [d]pyridazin-4-yl)oxy)phenyl)-3,5-dioxo-2,3,4,5-tetrahydro-1,2,4-triazine-6-carbonitrile]

crystal form after thermal crystal transformation (heated to 100° C.): Form A | crystal form after thermal crystal transformation (heated to 190° C.): Form C | Results (crystal form after thermal crystal transformation, XRPD) (target temperature 100° C.): Form A | Results (crystal form after thermal crystal transformation, XRPD) (target temperature 190° C.): Form C
Compound: [2H]C([2H])([2H])[C@@H]1CCc2c(Oc3c(Cl)cc(-n4nc(C#N)c(=O)[nH]c4=O)cc3Cl)n[nH]c(=O)c21 [Form L, (R)-2-(3,5-dichloro-4-((7-(methyl-d3)-1-oxo-2,5,6,7-tetrahydro-1H-cyclopenta [d]pyridazin-4-yl)oxy)phenyl)-3,5-dioxo-2,3,4,5-tetrahydro-1,2,4-triazine-6-carbonitrile]

Results (crystal form after thermal crystal transformation, XRPD) (target temperature 260° C.): Form C
Compound: [2H]C([2H])([2H])[C@@H]1CCc2c(Oc3c(Cl)cc(-n4nc(C#N)c(=O)[nH]c4=O)cc3Cl)n[nH]c(=O)c21 [Form M, (R)-2-(3,5-dichloro-4-((7-(methyl-d3)-1-oxo-2,5,6,7-tetrahydro-1H-cyclopenta [d]pyridazin-4-yl)oxy)phenyl)-3,5-dioxo-2,3,4,5-tetrahydro-1,2,4-triazine-6-carbonitrile]

Results (crystal form after thermal crystal transformation, XRPD) (target temperature 235° C.): Form C
Compound: [2H]C([2H])([2H])[C@@H]1CCc2c(Oc3c(Cl)cc(-n4nc(C#N)c(=O)[nH]c4=O)cc3Cl)n[nH]c(=O)c21 [Form N, (R)-2-(3,5-dichloro-4-((7-(methyl-d3)-1-oxo-2,5,6,7-tetrahydro-1H-cyclopenta [d]pyridazin-4-yl)oxy)phenyl)-3,5-dioxo-2,3,4,5-tetrahydro-1,2,4-triazine-6-carbonitrile]
crystal form after thermal crystal transformation (heated to 235° C. or more): Form C with a slightly less crystallinity

Results (crystal form after thermal crystal transformation, XRPD) (target temperature 200° C.): Form C
Compound: [2H]C([2H])([2H])[C@@H]1CCc2c(Oc3c(Cl)cc(-n4nc(C#N)c(=O)[nH]c4=O)cc3Cl)n[nH]c(=O)c21 [Form R, (R)-2-(3,5-dichloro-4-((7-(methyl-d3)-1-oxo-2,5,6,7-tetrahydro-1H-cyclopenta [d]pyridazin-4-yl)oxy)phenyl)-3,5-dioxo-2,3,4,5-tetrahydro-1,2,4-triazine-6-carbonitrile]

crystal form after thermal crystal transformation (heated to 150° C.): Form V
Compound: [2H]C([2H])([2H])[C@@H]1CCc2c(Oc3c(Cl)cc(-n4nc(C#N)c(=O)[nH]c4=O)cc3Cl)n[nH]c(=O)c21 [Form V, (R)-2-(3,5-dichloro-4-((7-(methyl-d3)-1-oxo-2,5,6,7-tetrahydro-1H-cyclopenta [d]pyridazin-4-yl)oxy)phenyl)-3,5-dioxo-2,3,4,5-tetrahydro-1,2,4-triazine-6-carbonitrile]

From US20250179050A1, “POLYMORPH AS THYROID HORMONE RECEPTOR AGONISTS AND USE THEREOF” (XIZANG HAISCO PHARMACEUTICAL CO., LTD., priority 2022, published 2025)
